Where two headings read alike, the source gives them in different places.
Experiments:
[1] = test system: Legionella pneumophilia (ATCC 33152); format: cell-based; conditions: pH 8.0, 0.005% yeast extract
[2] = test system: P. aeruginosa (PA01) in biofilm; experiment: Antimicrobial efficacy in relation to bacteria in biofilm (24 hours old); format: cell-based; conditions: for Log10 reduction factor: biofilm, starting number > 8 log10 cfu/cm^2

Molecule | Log10 reduction factor ([1]; 7.50% aqueous solution, 15 min exposure) | Log10 reduction factor ([1]; 7.50% aqueous solution, 30 min exposure) | Log10 reduction factor ([1]; 7.50% aqueous solution, 60 min exposure) | Log10 reduction factor ([1]; 7.50% aqueous solution, 120 min exposure) | Log10 reduction factor ([2]; 1.7% solution, 5 min exposure) | Log10 reduction factor ([2]; 1.7% solution, 15 min exposure) | Log10 reduction factor ([2]; 1.7% solution, 30 min exposure) | Log10 reduction factor ([2]; 1.7% solution, 60 min exposure) | antimicrobial efficacy in biofilms (in words) ([2]; 1.7%, compared to 17% H2O2 and 100% PAM) | antimicrobial efficacy in relation to biofilms (in words) ([2]; 17%) | Log10 reduction factor ([2]; 17% aqueous solution, 5 min exposure) | Log10 reduction factor ([2]; 17% aqueous solution, 15 min exposure) | Log10 reduction factor ([2]; 17% aqueous solution, 30 min exposure) | Log10 reduction factor ([2]; 17% aqueous solution, 60 min exposure) | antimicrobial effect in relation to the test organisms in biofilms 24 hours old (in words) ([2]; 17% solution, after just 5 minutes of exposure time) | Log10 reduction factor ([1]; aqueous 1% solution, 15 min exposure) | Log10 reduction factor ([1]; aqueous 1% solution, 30 min exposure) | Log10 reduction factor ([1]; aqueous 1% solution, 60 min exposure) | Log10 reduction factor ([1]; aqueous 1% solution, 120 min exposure)
OO [H2O2, hydrogen peroxide] | 2.24 Log10 | 3.44 Log10 | 4.25 Log10 | 4.83 Log10 | 0.84 Log10 | 1.62 Log10 | 1.95 Log10 | 2.53 Log10 | significant loss of antimicrobial efficacy | high and substantially equivalent | >8.00 Log10 | >8.00 Log10 | >8.00 Log10 | >8.00 Log10 | high antimicrobial effect |  |  |  | 
polyoxyethylene (20) sorbitan monooleate [PSb 80] |  |  |  |  |  |  |  |  |  |  |  |  |  |  |  | 0.06 Log10 | 0.09 Log10 | 0.09 Log10 | 0.11 Log10

Source: US11109590B2 (priority 2017, dated 2021)
